Three compounds from ChEMBL document CHEMBL3098003, “Structure-based design of 2-aminopyridine oxazolidinones as potent and selective tankyrase inhibitors” (ACS Med Chem Lett, 2013) can be followed below.

Each structure is given as a SMILES string. Bounds are passed on as bounds.

The target in assay [1] is T1, Poly [ADP-ribose] polymerase tankyrase-1 (Homo sapiens, UniProt O95271).
T1 sequence (O95271 whole entry): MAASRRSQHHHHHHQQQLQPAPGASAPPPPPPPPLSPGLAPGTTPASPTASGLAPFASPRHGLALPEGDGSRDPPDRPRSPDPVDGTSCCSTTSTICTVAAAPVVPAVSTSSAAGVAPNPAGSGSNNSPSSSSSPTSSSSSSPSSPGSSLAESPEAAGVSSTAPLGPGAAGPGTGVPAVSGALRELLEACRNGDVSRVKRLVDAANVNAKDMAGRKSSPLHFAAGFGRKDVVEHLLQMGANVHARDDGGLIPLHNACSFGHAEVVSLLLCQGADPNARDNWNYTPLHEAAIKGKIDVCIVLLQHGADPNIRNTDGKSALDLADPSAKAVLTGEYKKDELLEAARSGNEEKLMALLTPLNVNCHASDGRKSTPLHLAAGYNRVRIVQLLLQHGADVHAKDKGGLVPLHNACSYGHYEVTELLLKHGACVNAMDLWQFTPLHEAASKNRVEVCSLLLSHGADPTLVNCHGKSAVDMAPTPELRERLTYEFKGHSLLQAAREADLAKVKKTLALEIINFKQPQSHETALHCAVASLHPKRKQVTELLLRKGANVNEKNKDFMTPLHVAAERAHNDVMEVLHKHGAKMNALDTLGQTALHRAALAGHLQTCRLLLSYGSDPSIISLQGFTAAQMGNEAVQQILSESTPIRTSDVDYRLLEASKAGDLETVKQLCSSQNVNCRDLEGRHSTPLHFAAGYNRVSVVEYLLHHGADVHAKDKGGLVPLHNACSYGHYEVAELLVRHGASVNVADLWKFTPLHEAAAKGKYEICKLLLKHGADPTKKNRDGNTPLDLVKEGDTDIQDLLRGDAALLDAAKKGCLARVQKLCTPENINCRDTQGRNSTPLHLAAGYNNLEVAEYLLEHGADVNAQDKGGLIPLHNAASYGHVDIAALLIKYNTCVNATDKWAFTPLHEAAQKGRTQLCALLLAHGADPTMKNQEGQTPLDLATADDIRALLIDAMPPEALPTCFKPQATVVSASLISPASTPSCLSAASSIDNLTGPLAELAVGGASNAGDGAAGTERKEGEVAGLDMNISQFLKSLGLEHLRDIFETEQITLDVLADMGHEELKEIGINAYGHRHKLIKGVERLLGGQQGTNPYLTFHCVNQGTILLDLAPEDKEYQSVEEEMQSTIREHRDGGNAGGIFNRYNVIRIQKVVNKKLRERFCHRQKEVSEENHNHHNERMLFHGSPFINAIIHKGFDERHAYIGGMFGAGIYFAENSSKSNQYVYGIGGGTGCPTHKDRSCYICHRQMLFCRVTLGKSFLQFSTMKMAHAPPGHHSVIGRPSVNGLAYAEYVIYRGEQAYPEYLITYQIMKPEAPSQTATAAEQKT
As to the kind of experiment: Inhibition of recombinant 6XHis-tagged TNKS1 (1091 to 1325) (unknown origin) after 60 mins by spectrophotometric analysis.

For assay [2], the target named is T2, Tankyrase 1/2 (Homo sapiens, UniProt Q9H2K2+O95271).
T2 sequence (Q9H2K2 whole entry): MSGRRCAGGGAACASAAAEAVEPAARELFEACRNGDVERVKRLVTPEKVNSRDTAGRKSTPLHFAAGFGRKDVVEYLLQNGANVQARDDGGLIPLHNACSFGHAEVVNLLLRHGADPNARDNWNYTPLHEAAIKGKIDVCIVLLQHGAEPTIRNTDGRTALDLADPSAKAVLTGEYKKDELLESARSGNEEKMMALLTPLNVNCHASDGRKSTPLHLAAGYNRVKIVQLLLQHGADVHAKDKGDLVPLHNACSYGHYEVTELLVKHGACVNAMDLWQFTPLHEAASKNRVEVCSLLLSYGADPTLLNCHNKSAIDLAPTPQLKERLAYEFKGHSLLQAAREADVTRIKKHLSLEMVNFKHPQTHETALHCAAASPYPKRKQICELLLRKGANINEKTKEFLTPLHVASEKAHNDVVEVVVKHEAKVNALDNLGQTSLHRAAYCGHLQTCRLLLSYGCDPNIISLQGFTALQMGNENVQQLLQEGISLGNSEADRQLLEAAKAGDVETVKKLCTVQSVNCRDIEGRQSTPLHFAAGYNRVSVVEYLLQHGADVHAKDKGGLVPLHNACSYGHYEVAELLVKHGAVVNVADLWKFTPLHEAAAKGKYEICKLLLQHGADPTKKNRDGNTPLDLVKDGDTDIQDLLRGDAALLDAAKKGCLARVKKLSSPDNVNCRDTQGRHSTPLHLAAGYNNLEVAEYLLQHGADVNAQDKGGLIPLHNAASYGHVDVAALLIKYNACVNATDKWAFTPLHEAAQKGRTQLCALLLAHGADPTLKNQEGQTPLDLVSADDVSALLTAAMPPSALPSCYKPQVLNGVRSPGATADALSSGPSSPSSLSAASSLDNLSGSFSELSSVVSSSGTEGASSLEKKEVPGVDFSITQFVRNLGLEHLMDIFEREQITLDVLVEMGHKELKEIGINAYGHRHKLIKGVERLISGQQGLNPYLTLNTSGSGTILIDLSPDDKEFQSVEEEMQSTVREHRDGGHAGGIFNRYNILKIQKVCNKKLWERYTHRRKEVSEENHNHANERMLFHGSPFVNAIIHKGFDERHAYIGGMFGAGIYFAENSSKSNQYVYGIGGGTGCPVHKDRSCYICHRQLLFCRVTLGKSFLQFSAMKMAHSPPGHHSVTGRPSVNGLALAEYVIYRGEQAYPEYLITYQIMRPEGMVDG
T2 sequence (O95271 whole entry): T1 sequence (O95271 whole entry)
The assay can be described thus: Inhibition of tankyrase in human DLD1 cells assessed as inhibition of Wnt gene transcription after 40 to 48 hrs by STF assay. The conditions noted are these: dld-1. Type of assay: cell-based.

Assay [3] has as its target T2, Tankyrase 1/2. As to the kind of experiment: Inhibition of tankyrase in human SW480 cells assessed as axin2 accumulation after 24 hrs by Hoechst dye-based assay. Format: cell-based.
Assay [4] concerns the target Poly [ADP-ribose] polymerase 2 (Homo sapiens, UniProt Q9UGN5). The assay can be described thus: Inhibition of PARP2 (unknown origin).
Assay [5] addresses Poly [ADP-ribose] polymerase 1 (Homo sapiens, UniProt P09874). As to the kind of experiment: Inhibition of PARP1 (unknown origin).
Assay [6] has as its target T2, Tankyrase 1/2. The assay can be described thus: Inhibition of tankyrase in human SW480 cells assessed as degradation of total beta-catenin after 40 to 48 hrs. Format: cell-based.

Sequence of Poly [ADP-ribose] polymerase 2 (Q9UGN5 whole entry): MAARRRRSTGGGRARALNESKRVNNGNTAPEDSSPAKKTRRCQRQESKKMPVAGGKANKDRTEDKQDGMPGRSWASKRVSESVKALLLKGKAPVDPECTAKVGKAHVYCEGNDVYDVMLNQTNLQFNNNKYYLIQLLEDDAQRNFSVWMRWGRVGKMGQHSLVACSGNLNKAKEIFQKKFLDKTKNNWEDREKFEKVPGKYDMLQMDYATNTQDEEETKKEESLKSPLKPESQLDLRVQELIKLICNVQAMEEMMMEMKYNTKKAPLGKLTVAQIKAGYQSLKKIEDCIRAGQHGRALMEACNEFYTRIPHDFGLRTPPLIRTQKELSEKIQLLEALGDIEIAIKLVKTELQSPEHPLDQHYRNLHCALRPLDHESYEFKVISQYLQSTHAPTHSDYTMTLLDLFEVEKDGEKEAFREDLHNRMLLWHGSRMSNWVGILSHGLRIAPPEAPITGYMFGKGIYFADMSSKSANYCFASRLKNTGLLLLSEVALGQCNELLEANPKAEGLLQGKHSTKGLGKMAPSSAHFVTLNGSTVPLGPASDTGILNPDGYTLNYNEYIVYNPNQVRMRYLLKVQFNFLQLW
Sequence of Poly [ADP-ribose] polymerase 1 (P09874 whole entry): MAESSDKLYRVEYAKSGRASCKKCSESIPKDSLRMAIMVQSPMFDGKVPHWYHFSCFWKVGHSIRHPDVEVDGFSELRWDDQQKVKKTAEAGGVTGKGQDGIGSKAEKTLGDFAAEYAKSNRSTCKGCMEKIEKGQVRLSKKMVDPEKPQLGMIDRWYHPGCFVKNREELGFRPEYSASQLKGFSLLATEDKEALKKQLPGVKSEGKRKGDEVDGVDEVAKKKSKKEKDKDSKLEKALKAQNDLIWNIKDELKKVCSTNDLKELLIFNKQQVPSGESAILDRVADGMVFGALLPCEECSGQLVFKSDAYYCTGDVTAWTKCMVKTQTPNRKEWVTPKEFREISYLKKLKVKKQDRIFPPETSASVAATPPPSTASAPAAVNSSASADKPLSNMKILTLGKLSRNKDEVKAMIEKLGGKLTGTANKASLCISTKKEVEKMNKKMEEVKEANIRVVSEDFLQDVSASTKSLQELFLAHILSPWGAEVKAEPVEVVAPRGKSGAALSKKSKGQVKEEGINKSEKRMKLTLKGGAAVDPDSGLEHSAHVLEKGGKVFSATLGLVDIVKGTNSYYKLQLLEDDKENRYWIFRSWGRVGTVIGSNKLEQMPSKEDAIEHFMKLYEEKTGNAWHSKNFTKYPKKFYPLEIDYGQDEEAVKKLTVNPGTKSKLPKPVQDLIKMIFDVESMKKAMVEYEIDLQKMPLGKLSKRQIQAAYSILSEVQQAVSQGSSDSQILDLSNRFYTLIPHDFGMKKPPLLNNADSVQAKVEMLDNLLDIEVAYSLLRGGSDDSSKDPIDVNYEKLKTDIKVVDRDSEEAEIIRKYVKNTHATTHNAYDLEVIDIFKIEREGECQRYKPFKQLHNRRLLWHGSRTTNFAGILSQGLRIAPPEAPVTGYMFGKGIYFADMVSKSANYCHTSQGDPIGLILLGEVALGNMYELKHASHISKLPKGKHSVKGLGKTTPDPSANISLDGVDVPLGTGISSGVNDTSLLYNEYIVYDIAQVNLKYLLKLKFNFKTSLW

As for `CC1(C)OC(=O)N([C@H]2CC[C@H](c3cnc(N)c(C#N)c3)CC2)[C@H]1c1ccccc1`, the IC50 in assay [1] was 9 nM; at Tankyrase 1/2 [2], 43 nM; in assay [4], more than 170000 nM; in assay [5] it was more than 85000 nM; on Tankyrase 1/2 [6], 392 nM. Besides, on Tankyrase 1/2 [3], the 50% effective concentration (EC50) is 474 nM.
Take `CC1(C)OC(=O)N([C@H]2CC[C@H](c3ccc(N)nc3)CC2)[C@H]1c1ccccc1`: in assay [1], the IC50 was 148 nM.
`CC1(C)CC(=O)Nc2cc(NC(=O)c3cc(-c4ccc5nc(N)ncc5c4)ccc3F)ccc21`: the IC50 in assay [1] amounted to 150 nM; on Tankyrase 1/2 [6], 2000 nM.
